Experimental data taken from patent publication US12503440B2, “Nitroxoline derivative, preparation method therefor, and use thereof” (Jiangsu Yahong Meditech Co., Ltd., priority 2020, dated 2025).
≈ marks a conversion by molar mass, not a printed value.

Columns and labels:
Type in all cases: cell-based
Escherichia coli = experiment: Bacteriostatic activity, micro broth dilution MIC (CLSI); settings: 20 hours; for MIC50 / MIC90: clinical strains (carbapenem-resistant), CAMHB; for MIC50: read-out: Escherichia coli Clinical strain MIC50; for MIC90: read-out: Escherichia coli Clinical strain MIC90; for MIC: standard strain ATCC25922, CAMHB
Description: (§1) The purpose of this test is to determine the bacteriostatic activity of the compounds of the present invention against a representative panel of strains (Gram-negative bacteria: […] ATCC 25922, Acinetobacter baumannii ATCC 19606; Gram-positive bacteria: Staphylococcus aureus ATCC29213). Bacteriostatic activity was determined by minimum inhibitory concentration (MIC), MIC50, MIC90. This test was entrusted to Shanghai Junj Lab Co., Ltd. Except for the test drugs, all other test materials were provided by Shanghai Junj Lab Co., Ltd.
(§2) The tested bacteria were several strains of clinically isolated carbapenem-resistant Escherichia coli, several strains of carbapenem-resistant Acinetobacter baumannii, several strains of methicillin-resistant Staphylococcus aureus, and several strains of sensitive Staphylococcus aureus. Duplicate strains isolated from the same patient were eliminated. There were also three quality control strains Escherichia coli ATCC 25922, Acinetobacter baumannii ATCC 19606, and Staphylococcus aureus ATCC 29213. The activity test of each compound was carried out on one or more strains of each of the above test bacteria.
(§3) According to the recommendations of relevant documents of the American Clinical and Laboratory Standards Institute (CLSI), the micro broth dilution method was used to determine the MIC of the compounds of the present invention against clinically isolated strains. The culture solution free of drug was used as the test bacteria positive control, the culture solution free of bacterial solution was used as the drug negative control, and the culture solution free of drug solution and bacterial solution was used as the blank control. • 4.1 Formulation of antibacterial drug: All the compounds of the present invention were dissolved in DMSO. The drug concentration range was 128 mg/L-0.06 mg/L. Specific method: The compounds of the present invention were successively diluted by 1:1 with DMSO to obtain an intermediate series with a range of 25600 mg/L-12.5 mg/L. 30 μL of solution from each tube of the intermediate series of each compound was added to a 3 mL/tube series of single broth tube, and mixed well to obtain an intermediate series with a range of 256 mg/L to 0.125 mg/L. The diluted series solution was added to the drug susceptibility plate line by line, 50 μL of solution per well. All ranges became investigated ranges after being mixed with an equal volume of bacterial solution: 128-0.06 mg/L. • 4.2 Culture medium: The drug susceptibility test used cation adjusted Mueller-Hinton broth (CAMHB). • 4.3 Amount of inoculum: The test bacteria cultured overnight were adjusted to 0.5 McFarland turbidity by the direct colony suspension method, and diluted 100 folds, the final inoculum amount was 10^5 CFU/mL. • 4.4 Culture conditions: The test bacteria were cultured at 35±2° C. for 20 hours in air. 5. Interpretation and Judgment of Results
(§4) The drug susceptibility test results were interpretated by reference to CLSI 2019 edition M100 29th edition criteria.
(§5) The results of drug susceptibility test were statistically analyzed by WHONET version 5.6 software.
(§6) The culture solution free of bacterial solution was used as the drug negative control, and the culture solution free of drug solution and bacterial solution was used as the blank control, wherein no bacteria grew in both solutions.

Acinetobacter baumannii = experiment: as above; settings: 20 hours; for MIC50 / MIC90: clinical strains (carbapenem-resistant), CAMHB; for MIC50: read-out: Acinetobacter baumannii Clinical strain MIC50; for MIC90: read-out: Acinetobacter baumannii Clinical strain MIC90; for MIC: standard strain ATCC19606, CAMHB
Description: as §1, §2, §3, §4, §5, §6

Staphylococcus aureus = experiment: as above; settings: 20 hours; for MIC50 / MIC90: clinical strains (methicillin-resistant and sensitive), CAMHB; for MIC50: read-out: Staphylococcus aureus Clinical strain MIC50; for MIC90: read-out: Staphylococcus aureus Clinical strain MIC90; for MIC: standard strain ATCC29213, CAMHB
Description: as §1, §2, §3, §4, §5, §6

[1] = tested on: Prostate cancer cell line LNcaP Clone FGC; experiment: Inhibitory activity on cancer cells, CellTiter-Glo viability, 72 h; settings: Homo sapiens
Description: (§7) • HUVEC (purchased from Allcells Biological Technology (Shanghai) Co., Ltd.); UM-UC-3 (ATCC); LNCaP Clone FGC (ATCC); RM-1 (purchased from Nanjing Cobioer Biosciences Co., Ltd.) 2. Reagents • Endothelial cell complete medium (Allcells, H-004) • Medium RPMI1640 (ATCC, 30-2001) • Medium EMEM (ATCC, 30-2003) • Medium DMEM (Gibco, 12430-054) • Fetal bovine serum (Gibco, 10091148) • Penicillin-streptomycin double anti-body (Gibco, S110JV) • DPBS (Gibco, 14190-144) • CellTiter-Glo® kit (Promega, G7573) • Trypsin (0.25%), phenol red (Gibco, 25200-056) • DMSO (Sigma, D2650) 3. Instruments • Biological safety cabinet (Suzhou Antai Airtech Co., Ltd., BSC-1300A II) • Inverted microscope (Nikon, CKX53) • Automated cell counter (Life Technologies, countess II) • Multifunctional microplate reader (Biotek, H1FM) • Shaker (Hangzhou Allsheng Instruments Co., Ltd., OS-100) • GraphPad Prism 5.0 software • XLFIT 5.3 (Inforstack Shanghai Co., Ltd.) 4. Test Method
(§8) In this test method, the following experiments were carried out in a biological safety cabinet, and the specific steps are as follows: • (1) On the first day, the cells were seeded in a 96-well plate, and the previous medium was poured off. 5 mL of DPBS was added to wash the cells, and then removed by a pipette. Then, 1 mL of trypsin (0.25%) was added, and the plate was placed in a cell culture incubator at 37° C., 5% CO2 for digestion, and taken out after about 2 to 5 minutes. New corresponding medium was added, and pipetted to resuspend the cells evenly, and the cells were then counted with an automated cell counter.
(§9) The digestion was observed using an inverted microscope.
(§10) Regarding to HUVEC, the medium used was endothelial cell complete medium; regarding to UM-UC-3, the medium used was 89v % EMEM+10v % fetal bovine serum+1 v % penicillin-streptomycin double anti-body; regarding to LNcaP Clone FGC, the medium used was 89v % RPM11640+10v % fetal bovine serum+1 v % penicillin-streptomycin double anti-body; and regarding to RM-1, the medium used was 89v % DMEM+10v % fetal bovine serum+1v % penicillin-streptomycin double anti-body. • (2) HUVEC cells were seeded in columns 1 to 11 of a 96-well plate (Corning, Cat. No. 3610) at a density of 2000 cells per well in 100 μL of medium, and the medium free of cell was added to the wells of column 12. The other three types of cells were also seeded, wherein UM-UC-3 and RM-1 cells were seeded at a density of 3000 cells per well, and LNCap Clone FGC cells were seeded at a density of 5000 cells per well. Then, the plate was placed in an incubator at 37° C., 5% CO2 for 24 hours. • (3) On the second day, the compounds of the present invention and the reference drug nitroxoline (obtained according to the preparation method disclosed in the prior art) were diluted in gradient (2.5 folds, started at 100 μmol) to obtain 8 dose points (there were a total of 8 columns of wells; the first column of wells had the highest concentration, the concentration decreased in turn, and the last column of wells had the lowest concentration). 10 uL of the compound diluted in gradient was added to the 100 μL of cells in column 1 to column 10 with an 8-channel pipette. 10 μL of the corresponding medium containing 0.33v % DMSO was added to column 11 and column 12. The plate was incubated in an incubator at 37° C., 5% CO2 for 72 hours (note: column 11 was used as MAX well with cells and no compounds; and column 12 was used as MIN well with no cells and no compounds). • (4) After treating with the compounds of the present invention for 72 hours, the cell viability detection reagents in the above CellTiter-Glo® kit were added to the 96-well plate at 50 μL per well according to the instructions. […]

[2] = tested on: Bladder cancer cell line UM-UC-3; experiment: as above; settings: Homo sapiens, UMUC3, UM-UC-3, 72 h
Description: as §7, §8, §9, §10

[3] = tested on: Mouse prostate cancer cell line RM-1; experiment: as above; settings: RM-1, 72 h
Description: as §7, §8, §9, §10

SMILES | MIC50 (Escherichia coli) [µg/mL] | MIC90 (Escherichia coli) [µg/mL] | MIC50 (Acinetobacter baumannii) [µg/mL] | MIC90 (Acinetobacter baumannii) [µg/mL] | MIC50 (Staphylococcus aureus) [µg/mL] | MIC90 (Staphylococcus aureus) [µg/mL] | IC50 [1] [µM] | IC50 [2] [µM] | MIC (Escherichia coli) [µg/mL] | MIC (Acinetobacter baumannii) [µg/mL] | MIC (Staphylococcus aureus) [µg/mL] | IC50 [3] [µM]
CC(C)c1cc(O)c2ncccc2c1[N+](=O)[O-] [Example 33, 8-hydroxy-6-isopropyl-5-nitroquinoline] | 32 (≈ 138 µM) | 32 (≈ 138 µM) | 32 (≈ 138 µM) | 64 (≈ 276 µM) | 4 (≈ 17.2 µM) | 4 (≈ 17.2 µM) | – | – | – | – | – | –
O=[N+]([O-])c1ccc(O)c2nccc(-c3cccnc3)c12 [Example 17, 5-nitro-4-(pyridin-3-yl)quinolin-8-ol] | – | – | – | – | – | – | 4.8 | 4.9 | – | – | – | 2.8
O=C(OCC1CC1)c1cnc2c(O)ccc([N+](=O)[O-])c2c1 [Example 39, cyclopropylmethyl 8-hydroxy-5-nitroquinoline-3-carboxylate] | 64 (≈ 222 µM) | 64 (≈ 222 µM) | – | – | 1 (≈ 3.47 µM) | 1 (≈ 3.47 µM) | – | – | 64 (≈ 222 µM) | – | 2 (≈ 6.94 µM) | –
O=C(OC1CCCCC1)c1cnc2c(O)ccc([N+](=O)[O-])c2c1 [Example 43, cyclohexyl 8-hydroxy-5-nitroquinoline-3-carboxylate] | 128 (≈ 405 µM) | 128 (≈ 405 µM) | 128 (≈ 405 µM) | 128 (≈ 405 µM) | 2 (≈ 6.32 µM) | 2 (≈ 6.32 µM) | – | – | 128 (≈ 405 µM) | 128 (≈ 405 µM) | 4 (≈ 12.6 µM) | –

More lines, now with the values ahead:

MIC50 (Escherichia coli) [µg/mL] | MIC90 (Escherichia coli) [µg/mL] | MIC50 (Acinetobacter baumannii) [µg/mL] | MIC90 (Acinetobacter baumannii) [µg/mL] | MIC50 (Staphylococcus aureus) [µg/mL] | MIC90 (Staphylococcus aureus) [µg/mL] | IC50 [1] [µM] | IC50 [2] [µM] | MIC (Escherichia coli) [µg/mL] | MIC (Acinetobacter baumannii) [µg/mL] | MIC (Staphylococcus aureus) [µg/mL] | IC50 [3] [µM] | SMILES
– | – | – | – | – | – | 5.5 | 5.5 | – | – | – | – | O=[N+]([O-])c1ccc(O)c2nccc(N3CCOCC3)c12 [Example 5, 4-morpholino-5-nitroquinolin-8-ol]
8 (≈ 31 µM) | 16 (≈ 62 µM) | 8 (≈ 31 µM) | 8 (≈ 31 µM) | 2 (≈ 7.75 µM) | 2 (≈ 7.75 µM) | – | – | 8 (≈ 31 µM) | 8 (≈ 31 µM) | 2 (≈ 7.75 µM) | – | O=[N+]([O-])c1ccc(O)c2nccc(C(F)(F)F)c12 [Example 26, 5-nitro-4-trifluoromethylquinolin-8-ol]
– | – | – | – | – | – | – | 7 | – | – | – | – | O=[N+]([O-])c1ccc(O)c2nccc(N3CCCCC3)c12 [Example 6, 5-nitro-4-(piperidin-1-yl)quinolin-8-ol]
32 (≈ 118 µM) | 32 (≈ 118 µM) | 32 (≈ 118 µM) | 32 (≈ 118 µM) | 4 (≈ 14.7 µM) | 4 (≈ 14.7 µM) | – | – | 32 (≈ 118 µM) | 32 (≈ 118 µM) | 4 (≈ 14.7 µM) | – | O=[N+]([O-])c1ccc(O)c2nccc(C3CCCCC3)c12 [Example 25, 4-cyclohexyl-5-nitroquinolin-8-ol]
